Test results reported in publication PMC8003416, “Modulation of Human Phenylalanine Hydroxylase by 3-Hydroxyquinolin-2(1H)-One Derivatives” (Biomolecules, 2021).
Where two headings read alike, the source gives them in different places.

How the values were obtained:
[1] = target: T1, human phenylalanine hydroxylase (hPAH) (Homo sapiens, UniProt P00439); test: hPAH enzymatic activity assay (NA, 3HQ-A and Phe/3HQ-A conditions); type: biochemical; settings: 100 μM compound; for remaining activity at 100 µM: read-out: hPAH residual activity vs control
T1 construct: Recombinant full-length wild-type (WT) hPAH was expressed in E. coli Top10 cells in fusion with a hexa-histidyl peptide; made in house; host or cells: E. coli Top10
T1 sequence (P00439 1-452): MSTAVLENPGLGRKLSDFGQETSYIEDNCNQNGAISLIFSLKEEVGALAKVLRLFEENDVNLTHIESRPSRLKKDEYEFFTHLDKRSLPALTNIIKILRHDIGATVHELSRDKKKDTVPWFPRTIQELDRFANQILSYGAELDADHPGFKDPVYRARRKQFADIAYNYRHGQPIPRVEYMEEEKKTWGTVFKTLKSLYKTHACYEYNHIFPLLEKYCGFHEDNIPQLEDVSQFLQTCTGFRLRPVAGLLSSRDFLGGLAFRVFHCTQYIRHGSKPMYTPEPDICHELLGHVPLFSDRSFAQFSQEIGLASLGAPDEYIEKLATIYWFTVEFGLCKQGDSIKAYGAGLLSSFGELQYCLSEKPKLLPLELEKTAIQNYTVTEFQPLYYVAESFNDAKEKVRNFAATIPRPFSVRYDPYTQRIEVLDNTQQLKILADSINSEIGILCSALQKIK
Procedure: The hPAH activity was measured essentially as previously described. Briefly, the enzymatic reaction was performed in a 200 μL final volume, containing 250 mM Na-HEPES, pH 7, 0.1 mg/mL catalase (Sigma-Aldrich; St. Louis, MO, USA), 5 μg (final concentration of 0.112 μM of tetramer) of recombinant hPAH tetramers and 100 μM (NH4)2Fe(II)SO4. Using 100 μM L-Phe and 100 μM of tested compound, three experimental conditions were used to study the compounds’ modulatory effect, namely: non activated (NA), 3HQ-activated (3HQ-A) and substrate/3HQ-activated (Phe/3HQ-A) (Supplementary Figure S3). The reaction was started by addition of 75 μM BH4 (Schircks Laboratories; Bauma, Switzerland) prepared in 5 mM ascorbic acid. In the NA assay, the L-Phe substrate and tested compounds were added together with 75 µM BH4 at the start of the hydroxylation reaction. In the 3HQ-A condition, hPAH was pre-incubated with the tested compound for 4 min at 25 °C and the reaction was started by the addition of BH4 together with L-Phe. In the Phe/3HQ-A condition, hPAH was pre-incubated simultaneously with L-Phe and the tested compound (4 min, 25 °C). Appropriate control reactions were performed where the compounds were omitted and 1% DMSO was used. Kinetic parameters were determined using variable concentrations of L-Phe (25 to 2500 μM) and fixed concentrations of BH4 (75 μM) and tested compound (100 μM). After a 1-min incubation, the reaction was stopped, and the amount of L-Tyr produced was quantified by HPLC as previously described. The specific hPAH enzymatic activity is expressed as nmol of L-Tyr produced during 1 min per mg of protein (nmol L-Tyr.min^−1.mg^−1). The steady-state kinetic data were analyzed by nonlinear regression analysis using GraphPad Prism (La Jolla, CA, USA). Data was fitted to the modified Hill equation accounting for cooperative substrate binding as well as substrate inhibition (Equation (1)), to the modified Michaelis–Menten equation which accounts for substrate inhibition (Equation (2)) and to the non-modified Michaelis–Menten equation:v = (Vmax + Vi ([S]^x/Ki^x))/(1 + (K^h/[S]^h) + ([S]^x/Ki^x))(1) v = (Vmax [S])/(Km + [S](1 + [S]/Ki))(2)

[2] = target: T1, human phenylalanine hydroxylase (hPAH); test: Differential scanning fluorimetry (thermal denaturation); type: binding; settings: for ΔTm1 (regulatory domain) / ΔTm2 (catalytic domain): 100 μM compound vs 1% DMSO control, * S.D. < 0.01
Procedure: Thermal denaturation profiles of recombinant hPAH were obtained by differential scanning fluorimetry (DSF) in a C1000 Touch thermal cycler equipped with a CFX96 optical reaction module (Bio-Rad; Hercules, CA, USA) as previously described. Briefly, DSF assays (n = 3) were performed using 100 μg/mL hPAH tetramers (final concentration of 0.45 μM of tetramer), SYPRO Orange (5000-fold commercially available stock solution; Invitrogen; Carlsbad, CA, USA) at a 2.5-x final concentration and ramping the temperature from 20 to 90 °C, at 1 °C/min. Fluorescence data were acquired using the FRET channel. Data were processed using CFX Manager Software V3.0 (Bio-Rad) and the GraphPad Prism. Temperature scan curves were fitted to a biphasic dose–response function and the Tm values were obtained from the midpoint of the first (Tm1) and second transitions (Tm2) corresponding, respectively, to the thermal denaturation of the regulatory and catalytic domains. The Tm values in the presence of 3HQ were compared to those obtained in the presence of 1% DMSO (vehicle control) and a change in the Tm was considered significant when the |ΔTm| ≥ 2 °C [22].

[3] = target: T2, hPAH non-heme ferric center (Homo sapiens, UniProt P00439); test: Electron paramagnetic resonance spectroscopy; settings: ≈100 μM hPAH monomer, equimolar 3HQ, 4K
T2 construct: Recombinant full-length wild-type (WT) hPAH was expressed in E. coli Top10 cells in fusion with a hexa-histidyl peptide; made in house; host or cells: E. coli Top10
T2 sequence (P00439 1-452): T1 sequence (P00439 1-452)
Procedure: EPR spectra of hPAH (at ≈100 μM monomer) in the absence or presence of equimolar amounts of 3HQs were recorded at 4K in a Bruker EMX spectrometer (Billerica, MA, USA) equipped with an ESR-900 continuous flow helium cryostat from Oxford Instruments (Abingdon, Johnson, UK). Spectra were recorded for control samples containing 100 μM FeCl3 solutions incubated with equimolar amounts of 3HQs to evaluate direct binding of the compounds to free Fe^3+ in solution. Microwave frequency: 9.39 GHz; microwave power, 2 mW; modulation amplitude, 1 mT.

[4] = 100 μM compound in 1% DMSO, control 43.4 ± 0.6
[5] = 100 μM compound in 1% DMSO, control 53.5 ± 0.4

| SMILES | fold activation by L-Phe (Phe/3HQ-A vs. 3HQ-A) ([1]; 100 μM L-Phe) [fold] | remaining activity at 100 µM ([1]; 3HQ-A condition (4 min pre-incubation with compound, 25 °C)) [%] | hPAH activity, fold increase vs control ([1]; NA (non-activated) condition, 100 μM L-Phe, 1% DMSO control) [fold] | remaining activity at 100 µM ([1]; Phe/3HQ-A condition (pre-incubation with L-Phe and compound)) [%] | Tm1 (regulatory domain) [2, 4] [°C] | Tm2 (catalytic domain) [2, 5] [°C] | ΔTm1 (regulatory domain) [2] | ΔTm2 (catalytic domain) [2] | change of hPAH EPR spectrum [3] | Tm1 (regulatory domain) ([2]; 1 mM L-Phe, 1% DMSO) [°C] | Tm2 (catalytic domain) ([2]; 1 mM L-Phe, 1% DMSO) [°C] | remaining activity at 100 µM ([1]; NA (non-activated) condition) [%] | fold enzyme activation by compound (3HQ-A vs. NA) [1] [fold] |
| --- | --- | --- | --- | --- | --- | --- | --- | --- | --- | --- | --- | --- | --- |
| CCOC(=O)[C@H](Cc1ccccc1)NC(=O)c1c(O)c(=O)[nH]c2ccc(OC(F)(F)F)cc12 [Compound 3] | 1.3 | 69 | 1.1 | 57 | 51.7 ± 0.4 | 53.6 ± 0.2 | +8.3 ± 0.06 °C | +0.1 ± 0.01 °C | significant increase in the intensity of this main band at g = 4.25 |  |  |  |  |
| N[C@@H](Cc1ccccc1)C(=O)O [L-Phe, L-phenylalanine, reference compound] |  |  |  |  |  |  |  |  |  | 51.0 ± 0.2 | 58.4 ± 0.04 |  |  |
| COC(=O)CC[C@H](NC(=O)c1c(O)c(=O)[nH]c2ccc(OC(F)(F)F)cc12)C(=O)OC [Compound 9] | 1.4 |  |  |  | 43.5 ± 0.1 | 53.0 ± 0.1 | +0.2 ± 0.01 °C | -0.5 ± 0.01 °C | less rhombic EPR signals appeared |  |  | 58 |  |
| O=C(NCCc1ccccc1)c1c(O)c(=O)[nH]c2ccc(OC(F)(F)F)cc12 [Compound 8] | 1.7 |  |  |  | 43.3 ± 0.1 | 52.2 ± 0.3 |  | -1.3 ± 0.01 °C | less rhombic EPR signals appeared |  |  |  |  |
| COC(=O)CNC(=O)c1c(O)c(=O)[nH]c2ccc(OC(F)(F)F)cc12 [Compound 11] | 1.5 |  |  |  | 47.4 ± 0.1 | 53.6 ± 0.2 | +4.0 ± 0.01 °C |  | less rhombic EPR signals appeared |  |  |  | 1.6 |
